This is an account of results in the ASAP Discovery antiviral challenge data (2025).

The conditions of data set [1]: human; liver_microsomes.
Assay in data set [2]: not given
The source holds these as a separate data set.

For data set [3] the following is noted: mdck_mdr1.
For data set [4] the following is noted: mouse; liver_microsomes.

In brackets after ≈: the same amount, converted by molar mass. Several values for one entry are separate records, joined by “and”; a condition that tells them apart may be missing. Identical values can stand only once.

Molecule `CC[C@H](Cc1nnn[nH]1)c1ccc(NC(=O)c2cc(Cl)cc(NC(=O)OCc3ccccc3)c2)cc1` (racemic) yielded a kinetic solubility of 60 µM (≈ 30.3 µg/mL). This molecule yielded a microsomal CLint in data set [1] of 24.9 µL/min/mg. The same molecule had a log distribution coefficient (logD) in data set [2] of 4.1. This molecule registered a Papp in data set [3] of 2.79 ×10⁻⁶ cm/s.
The corresponding values for `CNC(=O)[C@H](Nc1cc(Cl)cc(NC(=O)OCc2ccccc2)c1)c1cccc(-c2nn[nH]n2)c1` (racemic) are 333 µM (≈ 164 µg/mL), 21.3 µL/min/mg, 2.2 and 1.39 ×10⁻⁶ cm/s.
The corresponding values for `COc1ccc([C@H](Cc2nnn[nH]2)NC(=O)c2ncnc3[nH]ccc23)cc1` (racemic) are 395 µM (≈ 144 µg/mL), 5 µL/min/mg, -0.1 and 1.39 ×10⁻⁶ cm/s.
Turning to `Cc1c(C(=O)Nc2cc([C@H]3CCOC3)ccn2)cc(C2CC2)n1C` (racemic), the microsomal CLint in data set [1] was found to be 57.7 µL/min/mg. In data set [2], this molecule showed a logD of 3. Besides, the apparent permeability (Papp) in data set [3] came to 27.2 ×10⁻⁶ cm/s.
The molecule `Cc1cc(-c2ccc([C@H](NC(=O)OCc3ccccc3)C(=O)Nc3cccc(CN)c3)cc2)cs1` (racemic) returned a kinetic solubility of 8 µM (≈ 3.88 µg/mL). For the same molecule, the microsomal CLint in data set [1] was 29.5 µL/min/mg. This molecule displayed an apparent permeability coefficient (Papp) in data set [3] of 1.19 ×10⁻⁶ cm/s.
Turning to `N#C[C@H](Nc1ccc2c(c1)CNC2)c1cc(Cl)cc2[nH]ncc12` (racemic), the kinetic solubility came to 297 µM (≈ 96.2 µg/mL). For the same molecule, in data set [1], the microsomal CLint is 10.3 µL/min/mg. Also, in data set [2], the logD is 0.9. For the same molecule, the apparent permeability coefficient (Papp) in data set [3] came to 1.1 ×10⁻⁶ cm/s.
For `N#C[C@H](Nc1cccc(-c2nn[nH]n2)c1)c1cc(Cl)cc(NC(=O)OCc2ccccc2)c1` (racemic), the solubility (kinetic) is 344 µM (≈ 158 µg/mL). In addition, the intrinsic metabolic clearance (microsomal CLint) in data set [1] was 13.6 µL/min/mg. In data set [2], this molecule had a logD of 3.2. Moreover, the apparent permeability coefficient (Papp) in data set [3] was determined as 3.23 ×10⁻⁶ cm/s.
The corresponding values for `N#C[C@H](Nc1cccc(C(=O)O)c1)c1cc(Cl)cc2[nH]ncc12` (racemic) are 112 µM (≈ 36.6 µg/mL), 12 µL/min/mg, 0.6 and 1.22 ×10⁻⁶ cm/s.
The molecule `NCc1cccc(NC(=O)C[C@H](NC(=O)OCc2ccccc2)c2ccc(OCc3ccccc3)c(Br)c2)c1` (racemic) came in with a kinetic solubility of 21 µM (≈ 12.4 µg/mL). In data set [1], this molecule had a microsomal CLint of 12.4 µL/min/mg. This molecule also yielded an apparent permeability (Papp) in data set [3] of 0.783 ×10⁻⁶ cm/s.
The corresponding values for `NCc1cccc(NC(=O)C[C@H](NC(=O)OCc2ccccc2)c2ccc(OCc3ccccc3)cc2)c1` (racemic) are 17 µM (≈ 8.66 µg/mL), 17 µL/min/mg and 1.04 ×10⁻⁶ cm/s.
Turning to `NCc1cccc(NC(=O)[C@H](NC(=O)OCc2ccccc2)C(C2CCC2)C2CCC2)c1` (racemic), the microsomal CLint in data set [1] amounted to 12.6 µL/min/mg. The molecule further showed a log distribution coefficient (logD) in data set [2] of 2.5. Also, the apparent permeability (Papp) in data set [3] was determined as 1.6 ×10⁻⁶ cm/s.
For `NCc1cccc(NC(=O)[C@H](NC(=O)OCc2ccccc2)C2CCCCC2)c1` (racemic) the same measures were 5.29 µL/min/mg, 2 and 1.58 ×10⁻⁶ cm/s.
With `NCc1cccc([C@H]2C[C@@H]2c2cc(Cl)cc(NC(=O)OCc3ccccc3)c2)c1` (racemic), the solubility (kinetic) was found to be 50 µM (≈ 20.3 µg/mL). The microsomal CLint in data set [1] is 11.4 µL/min/mg. The molecule further returned an apparent permeability coefficient (Papp) in data set [3] of 1.66 ×10⁻⁶ cm/s.
On to `O=C(N[C@H]1[C@H]2CCCCC[C@H]2[C@H]1C(=O)Nc1cccc(C2CCNCC2)c1)OCc1ccccc1` (racemic), for which the kinetic solubility stood at 49 µM (≈ 23.3 µg/mL). In data set [1], this molecule showed a microsomal CLint of 31.3 µL/min/mg. The molecule further registered a logD in data set [2] of 2.8. This molecule also had a Papp in data set [3] of 0.395 ×10⁻⁶ cm/s.
For the molecule `O=C(Nc1cc(Cl)cc([C@H]2CN(Cc3ccccc3)C[C@@H]2c2cccc(-c3nn[nH]n3)c2)c1)OCc1ccccc1` (racemic), the microsomal CLint in data set [1] was found to be 46.3 µL/min/mg. The molecule further registered a logD in data set [2] of 4.1. Besides, the Papp in data set [3] is 0.2 ×10⁻⁶ cm/s.
Consider `CC(C)[C@H](Nc1ncnc2[nH]c(-c3cnn(CC(=O)N(C)C)c3)cc12)c1ccc2c(c1)OCCO2` (single isomer, unassigned), for which, in data set [4], the intrinsic metabolic clearance (microsomal CLint) is 35 µL/min/mg and 45 µL/min/mg. Also, the pH-dependent lipophilicity (logD) in data set [2] was 2.9 and 3. Also, the Papp in data set [3] is 2.05 ×10⁻⁶ cm/s and 1.62 ×10⁻⁶ cm/s.
For the molecule `CC(C)[C@H](Nc1ncnc2[nH]c(C(=O)N[C@H]3CCN(C)C3)cc12)c1ccc2c(c1)S(=O)(=O)CCC2` (single isomer, unassigned), the solubility (kinetic) is 396 µM and 392 µM. In addition, in data set [1], the microsomal CLint is 11 µL/min/mg and 26 µL/min/mg. Also, the pH-dependent lipophilicity (logD) in data set [2] was 1.4 and 1.5. Further, the Papp in data set [3] is 0.175 ×10⁻⁶ cm/s and 0.325 ×10⁻⁶ cm/s.
On to `CC(C)[C@H](Nc1ncnc2[nH]ccc12)c1ccc2c(c1)S(=O)(=O)CCC2` (single isomer, unassigned), for which the solubility (kinetic) is 374 µM and 386 µM. In addition, in data set [1], the intrinsic metabolic clearance (microsomal CLint) was 57 µL/min/mg and 21 µL/min/mg. In addition, the logD in data set [2] was 2.7 and 2.5. Moreover, the Papp in data set [3] is 5.5 ×10⁻⁶ cm/s and 3.55 ×10⁻⁶ cm/s.
With `CCNC(=O)c1cc2c(N[C@H](c3ccc4c(c3)OCCO4)C(C)C)ncnc2[nH]1` (single isomer, unassigned), in data set [4], the microsomal CLint is 48 µL/min/mg and 72 µL/min/mg. For the same molecule, the logD in data set [2] was found to be 3.6. The Papp in data set [3] is 2.7 ×10⁻⁶ cm/s and 2.9 ×10⁻⁶ cm/s.
As to `CNC(=O)c1c[nH]c2ncnc(N[C@H](c3ccc4c(c3)S(=O)(=O)CCC4)C(C)C)c12` (single isomer, unassigned), the solubility (kinetic) was 336 µM and 204 µM. The microsomal CLint in data set [1] is 258 µL/min/mg and 108 µL/min/mg. Besides, the logD in data set [2] is 2.7 and 2.6. Also, the apparent permeability coefficient (Papp) in data set [3] is 1.61 ×10⁻⁶ cm/s and 0.857 ×10⁻⁶ cm/s.
On to `CNC(=O)c1cccc(-c2cc3c(N[C@H](c4ccc5c(c4)S(=O)(=O)CCC5)C(C)C)ncnc3[nH]2)c1` (single isomer, unassigned), for which the solubility (kinetic) was 13 µM and 15 µM. Moreover, the intrinsic clearance (microsomal CLint) in data set [1] is 746 µL/min/mg and 455 µL/min/mg. In data set [2], the pH-dependent lipophilicity (logD) is 3.8 and 3.7. Moreover, in data set [3], the Papp was 0.502 ×10⁻⁶ cm/s and 0.627 ×10⁻⁶ cm/s.
